Consider 7 compounds from patent publication US8884032B2, “Trioxane monomers and dimers” (The Johns Hopkins University, priority 2009, dated 2014).

Where “and” joins values, the source holds several entries; their conditions need not be identical. Equal values may be shown once. Marks after values point to notes of the source that are not given here.

For data set [1], the system named is Plasmodium berghei, ANKA strain. Description: Antimalarial efficacy of a single oral dose of trioxane combined with mefloquine hydrochloride in Plasmodium berghei-infected mice (Table 1). The data set is classed as in vivo. Here is the method: (§1) Each trioxane 2b, 3, 4a, and 4b (0.90 mg) was dissolved in 0.11 mL of 7:3 Tween 80:ethanol and then diluted with 1.10 mL of water for oral administration to 5-week old C57BL/6J male mice (from the Jackson Laboratory) weighing about 22 g that were infected intraperitoneally on day 0 with the Plasmodium berghei, ANKA strain (2×10^7 parasitized erythrocytes). Chen et al., 2006.
(§2) Each of five mice in a group was treated orally 24 h post-infection with a single dose of 0.20 mL (0.20 mL/1.21 mL×0.9 mg=0.15 mg) of diluted compound solution, corresponding to a dose of 6.8 mg/kg, combined with 20 mg/kg of mefloquine hydrochloride. Determining blood parasitemia levels, as well as monitoring the duration of animal survival compared to survival time of animals receiving no drug, are both widely accepted as measures of a drug's efficacy in antimalarial drug development. […] Animals receiving no drug died on days 6-7 post-infection. A widely accepted yardstick of cure (i.e., 100% efficacy) is survival of animals to day 30 post-infection, with no detectable malaria parasites in the animal's blood at that time.
Average survival results are summarized in Table 1, including single oral doses of 13 mg/kg of trioxane combined with 13 mg/kg of mefloquine hydrochloride. The clinically used monomeric water-soluble trioxane drug 2c and the synthetic trioxolane peroxide drug development candidate OZ277 (9) maleate are included as monotherapy reference compounds.

Data set [2] in a line: Thermal stability in the absence of solvent (1H NMR). The data set is classed as physicochemical. The note with it: neat solid. The text has this:
Referring now to Scheme 3, C-10 acetate 2d was converted into C-10-allyl derivative 7 and then, via hydroboration followed by oxidation, into monomeric trioxane carboxylic acid 8. Jung et al, 2003. Monomeric trioxane carboxylic acid 8 can be transformed in one step directly into a diverse library of monomeric trioxane amides. Jung et al, 2003. For example, one-step amidation of carboxylic acid 8 produced trioxane fluoroaryl amide 4a, a monomeric version of dimer fluoroaryl amide 3 (Scheme 3). In the same way, monomer trioxane fluoroanilide 4b was prepared directly and in good yield from carboxylic acid 8 (Scheme 3). The overall yield of 4b is approximately 48% from natural trioxane 1, and scale up to multigram or even kilogram amounts is expected to be straightforward. […]
Referring once again to Scheme 4, dihydroartemisinin acetate 2d, prepared from natural trioxane 1 in near quantitative yield, Posner et al., 2003, underwent tin-promoted dimerization, Posner et al., 2003, with bis-allylic silane 10, Bigot and Breit, 2008, to form pure C-10b, C10b-trioxane dimer alcohol 11 in 59% yield. […] Each of benzoate esters 12a-12c in the absence of solvent is thermally stable at the elevated temperature of 60° C. for at least 1 week and at 70° C. for at least 24 h, with less than 5% decomposition detected by ^1H NMR spectroscopy. […]

A short description of data set [3]: Overt toxicity and behavioral change in treated malaria-infected mice (fluoroaryl amide study). The data set is classed as in vivo. Conditions: malaria-infected animals cured by trioxane plus mefloquine hydrochloride. Here is the method: as §1, §2
For data set [4], the system named is Plasmodium berghei, ANKA strain. Description: Antimalarial efficacy of a single oral dose of trioxane (8 mg/kg) combined with mefloquine hydrochloride (24 mg/kg) in Plasmodium berghei-infected mice (Table 3). The data set is classed as in vivo. Conditions: single oral dose 8 mg/kg trioxane + 24 mg/kg mefloquine hydrochloride; for Average Survival (days) After Infection: 3 mice, experiment stopped on day 57. As for the experimental part: (§3) Each trioxane silylamide 14a, 14b, and 16 (0.90 mg) was dissolved in 0.11 mL of 7:3 Tween 80:ethanol and then diluted with 1.10 mL of water for oral administration to 5-week old C57BU6J male mice (from the Jackson Laboratory) weighing 18-19 grams that were infected intraperitoneally on day 0 with the Plasmodium berghei, ANKA strain (2×10^7 parasitized erythrocytes). Woodard et al., 2009. Each of 3 mice in a group was treated orally 24 hours post-infection with a single dose of 0.20 mL (0.20 mL/1.21 mL×0.9 mg=0.15 mg) of diluted compound solution, corresponding to a dose of 8 mg/kg, combined with 24 mg/kg of mefloquine hydrochloride. Determining blood parasitemia levels, as well as monitoring the duration of animal survival compared to survival time of animals receiving no drug, are both widely accepted as measures of a drug's efficacy in antimalarial drug development. […] Animals infected but receiving no drug died on an average of 15 days post-infection. A widely accepted yardstick of cure (i.e., 100% efficacy) is survival of animals to at least day 30 post-infection, with no detectable malaria parasites in the animal's blood at that time.

A short description of data set [5]: Overt toxicity, behavioral change and body weight in treated malaria-infected mice (silylamide study). Type of data set: in vivo. The note with it: malaria-infected animals cured by trioxane plus mefloquine hydrochloride. Here is the method:
as §3

Data set [6] has as its system Plasmodium berghei, ANKA malaria strain. Kind of data set: Antimalarial efficacy of a single oral dose (7.1 mg/kg) of trioxane combined with mefloquine hydrochloride (21 mg/kg) in Plasmodium berghei-infected mice (Table 2). Conditions: mefloquine hydrochloride alone, single oral dose 21 mg/kg; for % parasitemia on day 30%: average of 4 mice, hydrochloride, 21 mg/kg. Type of data set: in vivo. Here is the method: Each trioxane dimer 12a-12c (0.90 mg) was dissolved in 0.11 mL of 7:3 Tween 80:ethanol and then diluted with 1.10 mL of distilled water for oral administration to 5-week-old C57BL/6J male mice (Jackson Laboratory) weighing about 21 g that were infected ip on day 0 with the Plasmodium berghei, ANKA malaria strain (2×10^7 parasitized erythrocytes) [Chen et al., 2006]. Each of five mice in a group was treated orally 24 h post-infection with a single dose of 0.20 mL (0.20 mL/1.21 mL×0.9 mg=0.15 mg) of diluted compound solution, corresponding to a dose of 7.1 mg/kg, combined with 21 mg/kg of mefloquine hydrochloride. Both determining blood parasitemia levels, as well as monitoring the duration of animal survival compared with survival time of infected animals receiving no drug, are widely accepted measures of drug efficacy in antimalarial drug development. […] The average survival time of the animals receiving no drug was 15.8 days post-infection. […] Widely accepted indications of complete cure (i.e. 100% efficacy) are survival of animals to day 30 post-infection with no detectable malaria parasites in the animal's blood at that time.

The subject of data set [7] is Plasmodium berghei, ANKA strain. Kind of data set: Antimalarial efficacy of a single oral dose of trioxane (8 mg/kg) combined with mefloquine hydrochloride (24 mg/kg) in Plasmodium berghei-infected mice (Table 3). The note with it: mefloquine hydrochloride alone, single oral dose 22 mg/kg. Type of data set: in vivo.
A further data set concerns P388 leukemia. Conditions: NCI Report on NSC 369397, 25 Oct. 1983; cited from earlier work.
In data set [8] the test system is 60 cancer cell lines (leukemia, non-small-cell lung, colon, CNS, melanoma, ovarian, renal, prostate, breast). Conditions: cited from earlier work.
Where [9] appears, read: single oral dose 6.8 mg/kg trioxane + 20 mg/kg mefloquine hydrochloride.
Setting [10] is: single oral dose 13 mg/kg trioxane + 13 mg/kg mefloquine hydrochloride.
The mark [11] stands for this setting: mefloquine hydrochloride alone, single oral dose 20 mg/kg.

`C[C@H]1[C@@H](CCC(=O)Nc2ccc(F)cc2)O[C@@H]2O[C@]3(C)CC[C@H]4[C@H](C)CC[C@@H]1[C@@]24OO3` [4b, Trioxane Monomer Fluoroanilide]: the results for the “blood parasitemia of the one mouse not cured, day 30” value in data set [1] (6.8 mg/kg trioxane + 20 mg/kg mefloquine hydrochloride) and in [1] (13 mg/kg trioxane + 13 mg/kg mefloquine hydrochloride) were 4% and 2%, respectively. Moreover, the “mice completely cured (no parasites in their blood) on day 30 post-infection” value in [1] (6.8 mg/kg trioxane + 20 mg/kg mefloquine hydrochloride, five mice) was 80%. Moreover, the “mice cured (day 30)” value in data set [1] (13 mg/kg trioxane + 13 mg/kg mefloquine hydrochloride, five mice) is “four”. Moreover, the “% Suppression of Parasitemia (on day 3 post-infection)” value (from here on “% Suppression of Parasitemia”) in data set [1] (monotherapy, single oral dose 72 mg/kg trioxane, no mefloquine) was 99.0%; in [1] (setting [9]) it was 99.0%; in data set [1] (setting [10]), 99.6%. For the same compound, the “Average Survival (days) After Infection” value was 24.4 days and 24.4 (21, 23, days in data set [1] (monotherapy, single oral dose 72 mg/kg trioxane, no mefloquine, 72 mg/kg); 30 days in data set [1] (setting [10]). Also, the “extended survival time after reinfection, longer than average survival of a newly infected control group” value in data set [1] (reinfection of the four cured mice on day 32 after the original infection) is reported as “approximately four”. In addition, the “stable in the absence of solvent at 60° C.” value in [2] (60° C.) is on record as “at least 7 days”. In addition, in data set [2] (70° C.), the “stable in the absence of solvent at 70° C.” value is “at least 1 day”. Moreover, in [3], the “overt toxicity or behavioral change attributable to trioxane drug administration” value was “Neither overt toxicity nor behavioral change”.
In the case of `C[C@H]1[C@@H](CCC(=O)NC[Si](C)(C)C)O[C@@H]2O[C@]3(C)CC[C@H]4[C@H](C)CC[C@@H]1[C@@]24OO3` [14a], in [4], the “% Suppression of Parasitemia” value is on record as >99.5%, the “parasites in the blood of the surviving mice on day 57” value (“parasites in the blood” below) is on record as “no parasites were detected” and the “Average Survival (days) After Infection” value is listed as >57 days. Besides, the “overt toxicity or behavioral change attributable to trioxane drug administration” value in [5] was “Neither overt toxicity nor behavioral change”.
For `C[C@H]1[C@@H](CCC(=O)NCCC[Si](C)(C)C)O[C@@H]2O[C@]3(C)CC[C@H]4[C@H](C)CC[C@@H]1[C@@]24OO3` [14b], in data set [4], the “% Suppression of Parasitemia” value is reported as >99.5%, the “parasites in the blood” value is “^aOne mouse died on day 17; the other two mice in this group showed no parasitemia on day 57” and the “Average Survival (days) After Infection” value was 44^a days.
For the compound `Cl.OC(c1cc(C(F)(F)F)nc2c(C(F)(F)F)cccc12)C1CCCCN1` (stereo not shown) [Mefloquine, mefloquine hydrochloride, reference compound], in data set [1] (setting [11]), the “% Suppression of Parasitemia” value is 99.6% and the “Average Survival (days) After Infection” value is reported as 17.6 days. In addition, in data set [6], the “No. of mice parasite free (day 30)” value amounted to 1, the “suppression of parasitemia (day 3)” value is reported as 91.5% and the “% parasitemia on day 30%” value was 25 (4 mice) %. For the same compound, the “% parasitemia on day 30%” value in data set [6] (listed as mefloquine hydrochloride) turned out to be 25%. Besides, the “cure of malaria-infected mice” value in data set [7] was “not curative”.
Regarding `C[C@@H]1CC[C@H]2[C@@H](C)C(=O)O[C@@H]3O[C@@]4(C)CC[C@@H]1[C@]32OO4` [artemisinin], the “activity against P388 leukemia” value in the data set with P388 leukemia is “inactive”. The “anticancer activity in 60 cell line panel” value in data set [8] was “modest anticancer activity”.
On to `C[C@H]1[C@@H](CC(C[C@H]2O[C@@H]3O[C@]4(C)CC[C@H]5[C@H](C)CC[C@@H]([C@H]2C)[C@@]35OO4)C(=O)NCc2ccc(F)cc2)O[C@@H]2O[C@]3(C)CC[C@H]4[C@H](C)CC[C@@H]1[C@@]24OO3` (stereo partly shown) [compound 3, Trioxane Dimer Fluoroaryl Amide], for which the “% Suppression of Parasitemia” value in data set [1] (setting [9]) was determined as 99.5%; in data set [1] (setting [10]) it was 99.9%. Moreover, the “Average Survival (days) After Infection” value in data set [1] (single oral dose 6.8 mg/kg trioxane + 20 mg/kg mefloquine hydrochloride, 24 h post-infection, C57BL/6J mice) was 27.4 (22, 25, days; in data set [1] (setting [10]), 24.6 (17, 21, days.
With `C[C@H]1[C@@H](CC(C[C@H]2O[C@@H]3O[C@]4(C)CC[C@H]5[C@H](C)CC[C@@H]([C@H]2C)[C@@]35OO4)C(=O)NC[Si](C)(C)C)O[C@@H]2O[C@]3(C)CC[C@H]4[C@H](C)CC[C@@H]1[C@@]24OO3` (stereo partly shown) [compound 16], in data set [4], the “% Suppression of Parasitemia” value is recorded as >99.5%, the “parasites in the blood” value is recorded as “no parasites were detected” and the “Average Survival (days) After Infection” value is listed as >57 days. Also, the “overt toxicity or behavioral change attributable to trioxane drug administration” value in data set [5] was “Neither overt toxicity nor behavioral change”.
